The values that follow come from publication PMC9301969 (ACS Omega, 2022).

In general, pKd refers to −log10 of the Kd, conventionally taken in molar units.

The target in this assay is human serum albumin (HSA, nonglycated) (Homo sapiens, UniProt P02768). Put plainly: fluorescence polarization. In kind it is binding. For orientation: Polarisation of emitted light reports the rotation of a fluorescent probe.

The structures appear in SMILES notation. pKd: −log10 of the molar value.

Sequence of human serum albumin (HSA, nonglycated) (P02768 25-609): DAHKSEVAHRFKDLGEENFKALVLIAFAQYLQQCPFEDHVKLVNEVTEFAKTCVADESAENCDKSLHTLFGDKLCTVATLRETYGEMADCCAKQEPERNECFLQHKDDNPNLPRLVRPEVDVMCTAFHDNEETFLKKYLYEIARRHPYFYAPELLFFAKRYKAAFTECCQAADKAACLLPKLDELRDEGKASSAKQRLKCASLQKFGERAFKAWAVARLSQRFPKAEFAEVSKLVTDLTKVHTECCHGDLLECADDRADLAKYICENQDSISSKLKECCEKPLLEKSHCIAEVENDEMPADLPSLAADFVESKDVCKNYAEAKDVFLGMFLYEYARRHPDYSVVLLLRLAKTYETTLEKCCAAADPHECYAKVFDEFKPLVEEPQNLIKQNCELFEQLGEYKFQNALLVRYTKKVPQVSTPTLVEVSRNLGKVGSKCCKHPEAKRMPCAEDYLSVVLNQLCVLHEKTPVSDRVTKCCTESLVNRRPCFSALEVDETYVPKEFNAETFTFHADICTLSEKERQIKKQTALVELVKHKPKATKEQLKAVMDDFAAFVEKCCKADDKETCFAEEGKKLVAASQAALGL

Consider `O=C(O)CCN(Cc1ccc(C(F)(F)F)cc1B(O)O)Cc1c2ccccc2c(CN(CCC(=O)O)Cc2ccc(C(F)(F)F)cc2B(O)O)c2ccccc12` [compound 8, 3,3′-((anthracene-9,10-diylbis(methylene))bis((2-borono-4-(trifluoromethyl)benzyl)azanediyl))dipropionic acid], for which the pKd is 5.70.
